Where two headings read alike, the source gives them in different places.
What was measured:
CAIX = conditions: reported coumarins, Figure 1; cited from earlier work
CAI = conditions: reported coumarins, Figure 1; cited from earlier work
CAII = conditions: reported coumarins, Figure 1; cited from earlier work
hCA I = molecular target: T1, hCA I (Homo sapiens, UniProt P00915); experiment: CA inhibition by the esterase assay, hCA I; assay type: biochemical; conditions: for IC50: human recombinant enzyme, 4-nitrophenylacetate as substrate
T1 construct: purchased
Protocol: (§1) The esterase assay was used for testing the inhibitory activities of target compounds against carbonic anhydrases. […] Next, the stock solution of inhibitor was diluted to the specified concentration by using analysis buffer. […] In addition, the purchased CA was diluted with analysis buffer and added to 96-well plates. Next, different concentrations of inhibitors were also added to 96-well plates. To form the inhibitors and enzymes complex, E-I solutions were preincubated together for 4 h before the test at room temperature. Meanwhile, the nonenzymatic hydrolysis rates were tested by the blank control experiments. The absorbances were determined by using multifunctional enzyme marking instrument.

hCA IX = molecular target: T2, hCA IX (Homo sapiens, UniProt Q16790); experiment: CA inhibition by the esterase assay, hCA IX; assay type: biochemical; conditions: for Inhibition of hCA IX (in words) / IC50: esterase assay; for IC50: human recombinant enzyme, 4-nitrophenylacetate as substrate; for Selectivity Ratio hCA I/hCA IX / Selectivity Ratio hCA II/hCA IX: ratio of IC50 values
T2 construct: purchased
Protocol: as §1

hCA II = hCA II (Homo sapiens, UniProt P00918); experiment: CA inhibition by the esterase assay, hCA II; assay type: biochemical; conditions: human recombinant enzyme, 4-nitrophenylacetate as substrate
Protocol: as §1

MDA-MB-231 cancer cells = experiment: Extracellular pH measurement, MDA-MB-231; assay type: cell-based, human; conditions: MDA-MB-231, 0.1 and 0.5 mM, 48 h, normoxia and hypoxia
Protocol: (§2) One important feature of CA IX is regulating the pH of tumor cells. The expression of CA IX in solid tumors will make the extracellular pH become more acidic to promote tumor growth and metastasis. Therefore, the effect on extracellular pH of the representative compounds 10a and 10h was tested in hypoxia and normoxic conditions. […] Especially, the extracellular acidification of these two cancer cells could be slightly reversed by this compound under normoxic condition. In addition, the reversal of extracellular acidification is more significant under hypoxia condition. Furthermore, a dose-dependent effect was observed.
(§3) Figure 3 Extracellular pH measurement after 48 h of HT-29 and MDA-MB-231 cancer cells in normoxia and hypoxia upon treatment with compound 10a and 10h (0.1 and 0.5 mM).

[1] = Acute toxicity assay in mice; conditions: mouse, in vivo, oral, mice, expected from preliminary data
Protocol: (§4) Finally, acute toxicity of representative compounds was conducted in mice to preliminarily evaluate the risk of target compounds to mammals. […].
(§5) […]. After the compound was administered, the latency of death was observed and recorded over a span of 14 days. The experimental protocols were evaluated and approved by the ethics committee of the Shenyang Pharmaceutical University.

mice = experiment: Acute toxicity assay in mice; conditions: mouse, in vivo, 14 days
Protocol: as §4, §5

[2] = Metabolic stability in mouse liver microsomes; conditions: for CLint scaled at 1 μM / half-life at 1 μM: mouse, liver microsomes
HT-29 cells = experiment: Cell viability MTT assay, HT-29; assay type: cell-based; conditions: Homo sapiens
Protocol: (§6) In the present study, the potential cytotoxicity of compounds 10a–10p was evaluated in vitro by MTT assay. […] So, half of each cell line were subjected to hypoxic conditions (0.5% O2, 5% CO2 and 94.5% N2) for inducing the expression of CA IX and the other half were incubated under normal conditions (normoxia). Subsequently, all synthesized derivatives were screened at a concentration of 100 μM to test their cytotoxicity in mentioned above cells.
(§7) The two human cancer cell lines were cultivated for 24 h at 37 °C in a 96-well plate. Subsequently, different concentrations of inhibitors were added to 96-well plate and then was incubated for 96 hours. After the MTT solution was added to per well, cancer cells were further incubated for 4 h at 37 °C. Finally, formazan crystals were dissolved by using DMSO. The cancer cells were from American Type Culture Collection.

hERG channel = molecular target: T3, hERG channel (Homo sapiens, UniProt Q12809); experiment: Inhibition evaluation on hERG K+ channel (whole-cell recording, HEK 293); assay type: cell-based; conditions: HEK 293 cells stably transfected with hERG
T3 construct: expressed in transfected cells; host or cells: HEK 293
Protocol: HEK 293 cells were stably transfected with human Ether-a-gogo related gene (hERG) channel. The voltage-gated hERG potassium channel current was recorded at room temperature from randomly selected transfected cells using whole-cell recording technique with an EPC10 USB (HEKA) or Multiclamp 700 B amplifier (Molecular Devices) while electrical data was digitalized by Digidata1440 A with acquisition rate of 10 kHz and signals filtered at 2.5 KHz using Patchmaster or pClamp 10, respectively. Dofetilide was included as a positive control to ensure the accuracy and sensitivity of the test system. All experiments were performed in 3 times.

MDA-MB-231 cells = experiment: Cell viability MTT assay, MDA-MB-231; assay type: cell-based; conditions: Homo sapiens
Protocol: as §6, §7

Plasma stability assay = assay type: in vitro ADME; conditions: male, SD, pH 7.4, rat plasma, 37 °C
Protocol: In fact, most drugs reach their targets to show their pharmacological activity via the circulation system, therefore, the plasma stability of the target compound is a crucial consideration for the evaluation of its druggability. Therefore, the in vitro plasma stability assay of the representative compound was also performed in this study.
Rat plasma was collected from adult male SD rats. The in vitro stability of 10a was determined in rat plasma and in PBS at 37 °C, at the meantime, samples were taken at time points 0, 10, 30, 60, and 120, and tested by HPLC. The rest of the time was incubated in a constant temperature shaker to compare different time points. Compare the peak areas of 10a in PBS or in rat plasma (pH = 7.4, 37 °C) before and after constant temperature incubation at different time points. The compounds in rat plasma were extracted with methanol, centrifuged, and repeated three times, and then detected with a preparative liquid phase at 254 wavelength.

HT-29 cancer cells = experiment: Extracellular pH measurement, HT-29; assay type: cell-based, human; conditions: HT-29, 0.1 and 0.5 mM, 48 h, normoxia and hypoxia
Protocol: as §2, §3

MCF-10A cell line = experiment: Cytotoxicity against normal cell line MCF-10A (MTT assay); assay type: cell-based; conditions: Homo sapiens
in vitro = conditions: mouse, microsomes
[3] = hypoxia (0.5% O2, 5% CO2 and 94.5% N2), read-out: Cell Viability (%) HT-29 Hypoxia
[4] = normoxia, read-out: Cell Viability (%) HT-29 Normoxia
[5] = hypoxia (0.5% O2, 5% CO2 and 94.5% N2), read-out: Cell Viability (%) MDA-MB-231 Hypoxia
[6] = normoxia, read-out: Cell Viability (%) MDA-MB-231 Normoxia

T1 sequence (P00915 whole entry): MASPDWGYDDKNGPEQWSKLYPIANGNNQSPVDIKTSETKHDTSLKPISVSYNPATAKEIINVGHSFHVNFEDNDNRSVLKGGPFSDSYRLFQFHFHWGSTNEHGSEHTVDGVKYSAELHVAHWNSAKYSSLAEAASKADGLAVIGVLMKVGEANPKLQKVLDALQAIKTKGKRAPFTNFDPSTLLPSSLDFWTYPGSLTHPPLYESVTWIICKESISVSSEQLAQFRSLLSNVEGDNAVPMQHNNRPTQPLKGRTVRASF
T3 sequence (Q12809 whole entry): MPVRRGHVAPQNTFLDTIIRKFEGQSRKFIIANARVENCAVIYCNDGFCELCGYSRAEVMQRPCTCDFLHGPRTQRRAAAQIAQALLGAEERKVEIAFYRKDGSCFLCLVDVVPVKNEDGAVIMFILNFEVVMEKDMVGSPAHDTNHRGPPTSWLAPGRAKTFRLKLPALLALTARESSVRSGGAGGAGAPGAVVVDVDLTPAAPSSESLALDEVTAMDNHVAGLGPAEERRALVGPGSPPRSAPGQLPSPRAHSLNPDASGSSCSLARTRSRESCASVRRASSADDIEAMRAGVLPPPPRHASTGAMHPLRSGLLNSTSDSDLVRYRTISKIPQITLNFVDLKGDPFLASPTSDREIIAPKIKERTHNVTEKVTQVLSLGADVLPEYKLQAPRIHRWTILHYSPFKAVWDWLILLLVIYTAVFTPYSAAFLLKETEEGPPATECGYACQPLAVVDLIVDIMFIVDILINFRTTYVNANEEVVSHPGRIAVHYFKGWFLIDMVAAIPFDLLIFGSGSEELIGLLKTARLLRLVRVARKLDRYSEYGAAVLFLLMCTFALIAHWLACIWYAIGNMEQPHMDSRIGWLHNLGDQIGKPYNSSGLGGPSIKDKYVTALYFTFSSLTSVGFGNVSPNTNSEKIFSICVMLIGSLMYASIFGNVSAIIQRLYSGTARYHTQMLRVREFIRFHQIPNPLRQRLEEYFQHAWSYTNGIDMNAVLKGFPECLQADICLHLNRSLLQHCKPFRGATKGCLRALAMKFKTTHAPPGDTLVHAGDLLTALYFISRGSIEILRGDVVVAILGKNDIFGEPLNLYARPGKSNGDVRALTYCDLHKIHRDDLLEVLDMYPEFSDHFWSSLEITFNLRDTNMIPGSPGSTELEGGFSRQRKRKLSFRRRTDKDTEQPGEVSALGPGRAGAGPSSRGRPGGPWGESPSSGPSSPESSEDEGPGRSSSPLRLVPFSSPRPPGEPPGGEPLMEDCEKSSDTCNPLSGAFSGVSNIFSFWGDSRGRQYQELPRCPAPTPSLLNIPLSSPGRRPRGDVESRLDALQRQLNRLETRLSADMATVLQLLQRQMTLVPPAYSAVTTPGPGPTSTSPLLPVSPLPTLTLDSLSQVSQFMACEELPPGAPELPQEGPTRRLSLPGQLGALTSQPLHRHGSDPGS

SMILES	Ki (CAIX) [µM]	Ki (CAI) [µM]	Ki (CAII) [µM]	IC50 (hCA I) [µM]	IC50 (hCA IX) [µM]	IC50 (hCA II) [µM]	Selectivity Ratio hCA I/hCA IX (hCA IX)	Selectivity Ratio hCA II/hCA IX (hCA IX)	CLint scaled at 1 μM [2] [mL/min/kg]	half-life at 1 μM [2] [h]	viability at 100 µM (HT-29 cells; [3]) [%]	viability at 100 µM (HT-29 cells; [4]) [%]	viability at 100 µM (MDA-MB-231 cells; [5]) [%]	viability at 100 µM (MDA-MB-231 cells; [6]) [%]	further results
S=c1ccc2ccccc2o1 [2-Thiocoumarin 4, 2-thioxocoumarin]	6.7	> 100	> 100												
Cc1cc(=O)oc2cc(O)ccc12 [4-Methylumbelliferone, 4-methyl-7-hydroxy coumarin, reference compound]	0.56	> 100	> 100	> 100	0.6	> 100									Inhibition of hCA I (in words) (hCA I): not at all inhibited; Inhibition of hCA IX (in words) (hCA IX): weakly inhibited
Cc1cc(=O)oc2cc(O[C@@H]3O[C@H](CO)[C@@H](O)[C@H](O)[C@H]3O)ccc12 [Compound 8]	0.37	1	> 100												
Cc1cc(=O)oc2cc(O[C@@H]3O[C@H](CO)[C@@H](O)[C@H](O)[C@@H]3O)ccc12 [Compound 9]	0.0092	> 100	> 100												
O=c1ccc2ccc(OCc3cn([C@@H]4O[C@H](CO)[C@@H](O)[C@H](O)[C@H]4O)nn3)cc2o1 [Compound 10a, 7-[(1-β-. D-glucopyranosyl-1H-1,2,3-triazol-4-yl)methoxy]-2H-chromen-2-one]				33.2	0.011	21.5	3018	1955	4.76	19.2	32.5	40.2	32.9	51.3	Effect on extracellular acidification (extracellular pH) (MDA-MB-231 cancer cells): important impact on the extracellular acidification; LD50 at 14 days [1]: > 1500 mg/kg; Survival Quantity/Total Quantity (mice; 500 mg/kg): 5/5; Survival Quantity/Total Quantity (mice; 1000 mg/kg): 5/5; Survival Quantity/Total Quantity (mice; 1500 mg/kg): 5/5; IC50 (hERG channel): > 50 µM; remaining at 0 h (Plasma stability assay; time point 0 min): 100%; remaining at 10 min (Plasma stability assay; time point 10 min): 115%; remaining at 0.5 h (Plasma stability assay; time point 30 min): 93%; remaining at 1 h (Plasma stability assay; time point 60 min): 86%; remaining at 2 h (Plasma stability assay; time point 120 min): 102%; half-life (Plasma stability assay; read-out: T1/2 plasma stability): > 20.5 h; Effect on extracellular acidification (extracellular pH) (HT-29 cancer cells): important impact on the extracellular acidification; IC50 (MCF-10A cell line): > 100 µM
O=c1ccc2ccc(OCc3cn([C@@H]4O[C@H](CO)[C@@H](O)[C@H](O)[C@@H]4O)nn3)cc2o1 [Compound 10c, 7-[(1-β-. D-mannopyranosyl-1H-1,2,3-triazol-4-yl)methoxy]-2H-chromen-2-one]				17.5	0.015	24	1167	1600	4.07	22.4	40.2	42.6	38.3	55.2	LD50 at 14 days [1]: > 1500 mg/kg; Survival Quantity/Total Quantity (mice; 500 mg/kg): 5/5; Survival Quantity/Total Quantity (mice; 1000 mg/kg): 5/5; Survival Quantity/Total Quantity (mice; 1500 mg/kg): 5/5; IC50 (hERG channel): > 50 µM; IC50 (MCF-10A cell line): > 100 µM
O=c1ccc2ccc(OCc3cn([C@@H]4O[C@H](CO)[C@@H](O)[C@H]4O)nn3)cc2o1 [Compound 10h, 7-[(1-β-. D-ribofuranosyl-1H-1,2,3-triazol-4-yl)methoxy]-2H-chromen-2-one]				23.3	0.132	19	177	144	4.21	21.7	43.5	54	37.2	63.7	Effect on extracellular acidification (extracellular pH) (MDA-MB-231 cancer cells): weaker reversal effect of extracellular acidification; Effect on extracellular acidification (extracellular pH) (HT-29 cancer cells): weaker reversal effect of extracellular acidification; melting point: 131.2 to 133.6 °C
O=C(O)Cc1ccccc1Nc1c(Cl)cccc1Cl [Diclofenac, reference compound]															CL ([2]; mouse liver microsomes, 1 μΜ test compound): 137.4 mL/min/kg; half-life at 1 μM (in vitro): 0.667 h
S=c1ccc2ccccc2s1 [Dithiocoumarin 5, dithiocoumarin]		> 100	> 100												
O=c1ccc2ccc(O)cc2o1 [Umbelliferone, 7-hydroxy coumarin]	0.478	> 58.4	> 100												Inhibition of hCA I (in words) (hCA I): not at all inhibited; Inhibition of hCA IX (in words) (hCA IX): weakly inhibited
